The values below come from article PMC7242285, “JNJ-4178 (adafosbuvir, odalasvir, and simeprevir) in Japanese patients with chronic hepatitis C virus genotype 1 or 2 infection with or without compensated cirrhosis: the Phase IIa OMEGA-3 study” (Journal of Gastroenterology, 2020).

Series [1] concerns HCV GT3. Also on record: method as in PMID 30693573. The conditions noted are these: HCV GT3 (data on file); cited from earlier work.
In series [2] the test system is HCV GT1, GT2, GT4, GT5, and GT6. Also on record: method as in PMID 30693573, doi:10.1016/S0168-8278(12)60857-5. The note with it: cited from earlier work.
Series [3] in a line: OMEGA-3: plasma pharmacokinetics (sparse sampling and Week 4 intensive sub-study). The series is classed as in vivo, human (Japanese patients). As for the experimental part:
Blood samples for the assessment of the plasma pharmacokinetics of adafosbuvir (and its metabolites ALS-022399 and ALS-022227), odalasvir, and simeprevir were collected in all patients pre-dose, between 2 and 4 h post-dose, and between 4 and 6 h post-dose at Weeks 2, 4, 6, and 8 (Cohort 2 only) and EOT (Weeks 8 or 12). An additional plasma sample was taken at any time during the Week-12 follow-up visit for measurement of odalasvir only.
Additional blood samples were also obtained at Week 4 in a subgroup of patients (planned: ≥ 6 patients per cohort) who consented to intensive pharmacokinetic sampling (pharmacokinetic sub-study). Blood samples for adafosbuvir (and its metabolites ALS-022399 and ALS-022227), odalasvir, and simeprevir plasma concentrations were collected pre-dose and at 1, 2, 3, 4, 6, 8, 10, 12, and 24 h post-dose.
Plasma concentrations of adafosbuvir, ALS-022399, ALS-022227, simeprevir, and odalasvir were determined using validated liquid chromatography–mass spectrometry methods. The LLOQ for adafosbuvir and odalasvir was 1.00 ng/mL, for ALS-022399 was 2.00 ng/mL, for ALS-022227 was 5.00 ng/mL, and for simeprevir was 20.0 ng/mL.
Descriptive statistics for plasma concentrations of adafosbuvir (and its metabolites), odalasvir, and simeprevir were calculated at each sampling time point. Pharmacokinetic parameters were derived by non-compartmental pharmacokinetic analysis of adafosbuvir (and its metabolites), odalasvir, and simeprevir in the pharmacokinetic sub-study using actual sampling time points and plasma concentrations obtained during intensive sampling at Week 4. Graphs of the mean plasma concentration–time profiles were produced. An exploratory graphical pharmacokinetic/pharmacodynamic analysis was performed by means of scatter plots of pharmacodynamic parameters (individual PR interval [mean of the triplicate ECG measurements] and change from baseline in PR interval [Day 1 was baseline]) versus odalasvir plasma concentrations.

A short description of series [4]: OMEGA-3 Phase IIa study: adverse events and laboratory safety. In kind it is in vivo, human (Japanese patients). The conditions noted are these: given as part of JNJ-4178. The text has this: The study comprised a 6-week screening phase, an 8-week (Cohort 1: patients with no cirrhosis) or 12-week (Cohort 2: patients with compensated cirrhosis) open-label treatment phase, and a 24-week post-treatment follow-up period. Given that patients with HCV and compensated cirrhosis potentially have a higher safety risk than patients without compensated cirrhosis, dosing of Cohort 2 was only initiated after all safety data had been reviewed up to Week 4 for the first six patients in Cohort 1 by an independent Data Review Committee (Fig. 1). This study was conducted in accordance with the ethical principles that have their origin in the Declaration of Helsinki and that are consistent with Good Clinical Practices and applicable regulatory requirements. The study was approved by the relevant Institutional Review Board at each study center. All patients provided written, informed consent to participate.
Study drugs were administered orally with food at approximately the same time in the morning, each day.
(§1) The primary endpoint was safety, including but not limited to AEs, physical examination, vital signs, 12-lead ECGs, echocardiograms, and clinical laboratory results.
(§2) AEs were reported throughout the study from the time that informed consent to participate was received until completion of the last visit. Complete physical examination, vital signs assessments, and blood and urine sampling for clinical laboratory assessments (including hematological, serum chemistry, liver function, and urinalysis tests) were performed at screening and throughout the study. Triplicate ECGs and echocardiography were also performed at screening and during the study.
The safety analysis was performed on the Safety Set (all patients who received at least one dose of study drug). Safety data were analyzed descriptively. AEs were coded using the Medical Dictionary for Regulatory Activities (version 20.0). Laboratory abnormalities were assessed according to the World Health Organization Toxicity Grading Scale.

On the set-up of series [5]: method as in PMID 29736243. The conditions noted are these: single-dose pharmacokinetic studies (data on file) ref 24; cited from earlier work.
A short description of series [6]: OMEGA-3: ECG and echocardiography. The series is classed as in vivo, human (Japanese patients). The note with it: graphical evaluation.
Excerpt: as §1, §2
Descriptive statistics for plasma concentrations of adafosbuvir (and its metabolites), odalasvir, and simeprevir were calculated at each sampling time point. Pharmacokinetic parameters were derived by non-compartmental pharmacokinetic analysis of adafosbuvir (and its metabolites), odalasvir, and simeprevir in the pharmacokinetic sub-study using actual sampling time points and plasma concentrations obtained during intensive sampling at Week 4. Graphs of the mean plasma concentration–time profiles were produced. […]

Series [7] concerns HCV GT1, GT2, GT4, GT5, and GT6. Also on record: method as in PMID 22326470. The conditions noted are these: cited from earlier work.
Series [8] concerns CYP1A2. Details: method as in PMID 26453968. The conditions noted are these: cited from earlier work.
Series [9] has as its system HCV GT3. Details: method as in PMID 22326470. The conditions noted are these: cited from earlier work.
For series [10], the system named is CYP3A. The note with it: cited from earlier work.
The subject of series [11] is HCV GTs 1–6. Also on record: method as in doi:10.1016/S0168-8278(17)31470-8, PMID 30070722, PMID 30325939. The conditions noted are these: cited from earlier work.
The mark [12] stands for this setting: Cohort 1: no cirrhosis (N = 22), 8 weeks.
Setting [13] is: Cohort 2: compensated cirrhosis (N = 11), 12 weeks.

Structures are written as SMILES. Like-named read-outs stand apart in the source and are kept apart here.

Regarding `COC(=O)N[C@H](C(=O)N1[C@H](c2nc3cc(-c4cc5ccc4CCc4ccc(c(-c6ccc7[nH]c([C@@H]8C[C@@H]9CCCC[C@@H]9N8C(=O)[C@@H](NC(=O)OC)C(C)C)nc7c6)c4)CC5)ccc3[nH]2)C[C@@H]2CCCC[C@@H]21)C(C)C` [odalasvir], in series [1], the Activity result was “nanomolar”. The Potency result in series [2] is recorded as “picomolar”. In [3] (human, in vivo), the “AUC24h, mean (SD)” value is given as 6320 (1898) ng.h/mL; the “Cmax, mean (SD)” value is on record as 342 (113) ng/mL; the “Maximum Cmax among pharmacokinetic sub-study patients” value amounted to 546 ng/mL. In series [3] (in vivo), the “Ctrough levels in Cohort 2 compared with Cohort 1” value was “modestly lower”, the “Highest pre-dose concentration among patients” value is 474 to 889 ng/mL and the “Steady state judged from Ctrough levels” value was “steady-state conditions had not entirely been reached yet at Week 4”. For the same compound, the “Treatment-related AE at least possibly related to the named drug” value (“Treatment-related AE” for short) in series [4] (setting [12]) is reported as 9 (40.9) n (%). Moreover, the “Treatment-related AE” value in series [4] (setting [13]) is 4 (36.4) n (%). Also, the “Treatment-related AE” value in [4] (Overall (N = 33)) was 13 (39.4) n (%). The Terminal elimination half-life result in series [5] is “approximately 250 h”. The “Relationship between PR interval (absolute and change from baseline) and plasma concentrations” value in [6] is reported as “no apparent relationship”.
For `C[C@]1(O)[C@H](n2ccc(=O)[nH]c2=O)O[C@](F)(CO)[C@H]1O` [ALS-022227], in [3] (human, in vivo), the “AUC24h, mean (SD)” value is on record as 6688 (3116) ng.h/mL and the “Cmax, mean (SD)” value was 974 (554) ng/mL. Also, the “Steady state judged from Ctrough levels” value in series [3] (in vivo) is “steady-state exposure had been reached by Week 2”.
Regarding `COc1ccc2c(O[C@@H]3C[C@H]4C(=O)N[C@]5(C(=O)NS(=O)(=O)C6CC6)C[C@H]5/C=C\CCCCN(C)C(=O)[C@@H]4C3)cc(-c3nc(C(C)C)cs3)nc2c1C` [simeprevir], the “Antiviral activity in infected patients” value in [7] was “demonstrated antiviral activity”; in series [9] it was “no antiviral activity”. Also, the “Ctrough, max (between-patient variability)” value in [3] (human, in vivo) is 6090 ng/mL. The “Ctrough, min (between-patient variability)” value in series [3] (human, in vivo) amounted to 92.2 ng/mL. In series [3] (human, in vivo), the “Steady state judged from Ctrough levels” value is “steady-state exposure had been reached by Week 2”. Besides, the AUC(0-t) in series [3] (human, in vivo, AUC24h, mean (SD)) came out at 26900 ng·h/mL. In addition, the Cmax (commonly the maximum level reached in the sampled fluid or tissue) in series [3] (human, in vivo, Cmax, mean (SD)) came out at 2200 ng/mL. The “Ctrough levels in Cohort 2 compared with Cohort 1” value in series [3] (in vivo) is “higher”. In addition, the “Inhibition of CYP1A2” value in series [8] is reported as “mild, but not clinically relevant, inhibitor”. The “Treatment-related AE” value is 6 (27.3) n (%) in series [4] (setting [12]), 2 (18.2) n (%) in series [4] (setting [13]) and 8 (24.2) n (%) in series [4] (Overall (N = 33)). Besides, in series [10], the Metabolism entry is on record as “metabolized by cytochrome P450 (CYP) 3A”. The “Inhibition of CYP3A” value in series [10] (intestinal (not hepatic) CYP3A) was “mild inhibitor”.
As to `CC(C)OC(=O)[C@H](C)N[P@](=O)(OC[C@@]1(F)O[C@@H](n2ccc(=O)[nH]c2=O)[C@](C)(O)[C@@H]1O)Oc1ccccc1` [adafosbuvir], in series [3] (all visits, both patient cohorts, LLOQ 1.00 ng/mL adafosbuvir, 2.00 ng/mL ALS-022399), the “Plasma trough concentration (Ctrough)” value is recorded as “below the limit of quantification”. Moreover, the AUC(0-t) was 3020 ng·h/mL in series [3] (human, in vivo, plasma, Week 4, intensive sampling, Cohort 2 (n=2), first value listed, read-out: AUC24h, individual value); 3030 ng·h/mL in [3] (human, in vivo, plasma, Week 4, intensive sampling, Cohort 2 (n=2), second value listed, read-out: AUC24h, individual value); 1660 ng·h/mL in [3] (human, in vivo, plasma, Week 4, intensive sampling, JNJ-4178 dosing, Cohort 1: no cirrhosis (n=8), read-out: AUC24h, mean (SD)). Besides, the Cmax amounted to 964 ng/mL in [3] (human, in vivo, plasma, Week 4, intensive sampling, Cohort 2 (n=2), first value listed, read-out: Cmax, individual value); 1430 ng/mL in series [3] (human, in vivo, plasma, Week 4, intensive sampling, Cohort 2 (n=2), second value listed, read-out: Cmax, individual value); 903 ng/mL in [3] (human, in vivo, plasma, Week 4, intensive sampling, JNJ-4178 dosing, Cohort 1: no cirrhosis (n=8), read-out: Cmax, mean (SD)). Also, the “Treatment-related AE” value is listed as 6 (27.3) n (%) in series [4] (setting [12]), 3 (27.3) n (%) in series [4] (setting [13]) and 9 (27.3) n (%) in [4] (Overall (N = 33)). Besides, the Antiviral activity entry in [11] was “potent antiviral activity”.
